Measured values published in patent US9629830B2, “EphA4 inhibitors as neuroprotective agents” (The Hong Kong University of Science and Technology, priority 2013, dated 2017).
Entries after “also recorded” stand apart in the source; their conditions may differ.

Columns and labels:
[1] = tested on: Aβ-induced reduction of neurotransmission in hippocampal neurons; assay: mEPSC recording in Aβ-treated cultured hippocampal neurons; type: cell-based, rat
Procedure: Primary cortical and hippocampal neurons were prepared from embryonic day 18-19 rat embryos as described previously^24. Briefly, cortical neurons (6×10^6 per plate) were plated on 100-mm culture dishes coated with poly-D-lysine (12.5 μg/mL; Sigma). Rat hippocampal neurons were seeded on 18-mm coverslips coated with poly-D-lysine (50 μg/mL) at a density of 0.5×10^5/18-mm coverslip for immunocytochemical analysis, 0.1×10^5/18-mm coverslip for growth cone collapse assay, or 1×10^5 or 1.5×10^5/18-mm coverslip for mEPSC recording. Neurons were fed Neurobasal medium (Invitrogen) supplemented with 2% B27 (Invitrogen). Acute brain slices were prepared from P15-P17 Sprague-Dawley rats. Briefly, the rats were rapidly decapitated, and their brains were immersed in ice-cold artificial cerebrospinal fluid (ACSF). The hippocampus was dissected, and 300-μm-thick slices were prepared using a vibratome (Lieca). The slices were then transferred into an incubating chamber containing circulating ACSF equilibrated with 95% O2+5% CO2 and held at room temperature for at least 2 h for recovery prior to experiments^65.
For miniature EPSC recordings, hippocampal neurons at ˜25-28 DIV were co-treated with or without 500 nM Aβ together with the testing reagents for 24 h. Whole-cell patch-clamp recordings were made at room temperature with external solution containing (in mM) 110 NaCl, 5 KCl, 2 CaCl2, 0.8 MgCl2, 10 HEPES, and 10 D-glucose (pH 7.4) as well as an internal solution containing (in mM) 135 CsCl2, 10 HEPES, 2 MgCl2, 4 NaATP, 0.4 NaGTP, and 0.5 EGTA (pH 7.2)^24,27. Picrotoxin ([…]) was included in the external solution to block GABAergic IPSCs along with 0.5 μM TTX to prevent action potential-evoked EPSCs. For miniature EPSC recordings, cells were held at −70 mV. The pipette resistances for these experiments were typically 3-5 MΩ, while series resistances were 15-20 MΩ. The minis from each cell was recorded for 1 min in each condition. The measurement of mEPSC was according to that described in Mini Analysis Program for measuring AMPA receptor EPSCs (Synaptosoft Inc.). Only recording epochs in which series and input resistances varied <10% were analyzed. Data are presented as the mean±SEM of at least 3 experiments.

[2] = tested on: EphA4-dependent growth cone collapse in hippocampal neurons; assay: EphA4-dependent (ephrin-A1-stimulated) growth cone collapse assay; type: cell-based, rat; details: for ephrin-A1-stimulated growth cone collapse: cultured hippocampal neurons
Procedure: Ephrin-A1-Fc was pre-clustered with goat anti-human Fc antibody (1:4.5)^24 and incubated at room temperature for 60 min before use. The growth cone collapse assay was performed in hippocampal neurons with ephrin-A1 0.1 μg/mL as described previously^61.
(§1) For EphA4 clustering, neurons were stained with anti-EphA4 and anti-Tau-1 antibodies. For the growth cone collapse assay, neurons were stained with Alexa Fluor 555-conjugated phalloidin (Molecular Probes) for filamentous actin and anti-Tau-1 antibody for axons. Collapsed growth cones were scored in a double-blinded manner. The experiments were repeated at least 3 times, and >50 neurons were analyzed for each experiment. Data are presented as mean±SEM.
To screen for small molecule EphA4 inhibitors, the inventors performed a molecular docking analysis using a small molecule library. […] Their ability in inhibiting EphA4 inhibiting the EphA4-dependent growth cone collapse using cultured hippocampal neurons was performed.

EphA4 = biological target: T1, EphA4 (Rattus norvegicus, UniProt D3ZZK3); assay: Ephrin-A1-induced EphA4 cluster assay in cultured hippocampal neurons; type: cell-based; details: for inhibitory effect on EphA4 clusters (potency) compared to Rhy: dose-dependent experiment, FIG. 17; for potency as EphA4 inhibitor: same assay system, no data given
T1 construct: endogenous in cells; host or cells: primary rat cortical neurons (A5), primary rat hippocampal neurons (A7)
T1 sequence (D3ZZK3 20-986): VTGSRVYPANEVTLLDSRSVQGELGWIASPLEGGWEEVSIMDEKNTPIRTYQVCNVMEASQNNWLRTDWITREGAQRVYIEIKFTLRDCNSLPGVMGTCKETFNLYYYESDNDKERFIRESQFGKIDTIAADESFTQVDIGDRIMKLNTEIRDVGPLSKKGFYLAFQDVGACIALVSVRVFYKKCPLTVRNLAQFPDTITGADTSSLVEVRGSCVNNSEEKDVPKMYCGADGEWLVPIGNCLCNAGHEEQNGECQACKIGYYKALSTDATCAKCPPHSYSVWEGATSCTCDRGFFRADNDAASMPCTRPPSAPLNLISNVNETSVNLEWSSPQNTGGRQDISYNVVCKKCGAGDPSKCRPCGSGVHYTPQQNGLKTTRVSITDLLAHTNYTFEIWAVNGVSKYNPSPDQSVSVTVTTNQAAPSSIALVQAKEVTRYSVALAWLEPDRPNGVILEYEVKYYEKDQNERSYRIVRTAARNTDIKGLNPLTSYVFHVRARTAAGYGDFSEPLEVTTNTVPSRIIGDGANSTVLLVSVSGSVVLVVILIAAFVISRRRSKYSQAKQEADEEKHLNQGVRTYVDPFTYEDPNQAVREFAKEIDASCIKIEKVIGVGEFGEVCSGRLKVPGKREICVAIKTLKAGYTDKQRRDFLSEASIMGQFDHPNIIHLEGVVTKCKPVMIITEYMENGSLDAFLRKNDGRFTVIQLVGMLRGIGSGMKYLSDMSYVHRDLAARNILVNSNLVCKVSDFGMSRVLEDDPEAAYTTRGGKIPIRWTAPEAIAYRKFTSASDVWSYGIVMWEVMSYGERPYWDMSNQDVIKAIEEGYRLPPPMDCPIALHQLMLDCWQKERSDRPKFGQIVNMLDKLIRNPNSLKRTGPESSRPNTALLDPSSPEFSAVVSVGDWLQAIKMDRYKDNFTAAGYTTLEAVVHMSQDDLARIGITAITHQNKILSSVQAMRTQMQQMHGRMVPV
Procedure: as §1
Rat hippocampal neurons were seeded on 48-well plates coated with poly-D-lysine (50 μg/mL) at 6000 cells per well. Neurons were incubated with Neurobasal medium (Invitrogen) supplemented with 2% B27 (Invitrogen). […] Neurons were then immunostained with anti-EphA4 and anti-Tau-1 antibodies. The cellular imaging and quantification of EphA4 clusters was performed using IN Cell Analyzer 6000 high content assay system (GE Healthcare). EphA4 clusters were quantified by calculating the proportion of total area of EphA4 clusters on axons against Tau positive area. Statistical analysis was performed with one-way ANOVA followed by Newman-Keuls Multiple Comparison Test (Prism 5 GraphPad Software).

[3] = biological target: T2, extracellular domain of EphA4 (Homo sapiens, UniProt P54764); assay: In vitro pull-down of recombinant EphA4-Fc with biotinylated Rhy on streptavidin beads; type: binding; details: western blot
T2 construct: purchased R&D Systems
T2 sequence (P54764 20-547 limits assumed): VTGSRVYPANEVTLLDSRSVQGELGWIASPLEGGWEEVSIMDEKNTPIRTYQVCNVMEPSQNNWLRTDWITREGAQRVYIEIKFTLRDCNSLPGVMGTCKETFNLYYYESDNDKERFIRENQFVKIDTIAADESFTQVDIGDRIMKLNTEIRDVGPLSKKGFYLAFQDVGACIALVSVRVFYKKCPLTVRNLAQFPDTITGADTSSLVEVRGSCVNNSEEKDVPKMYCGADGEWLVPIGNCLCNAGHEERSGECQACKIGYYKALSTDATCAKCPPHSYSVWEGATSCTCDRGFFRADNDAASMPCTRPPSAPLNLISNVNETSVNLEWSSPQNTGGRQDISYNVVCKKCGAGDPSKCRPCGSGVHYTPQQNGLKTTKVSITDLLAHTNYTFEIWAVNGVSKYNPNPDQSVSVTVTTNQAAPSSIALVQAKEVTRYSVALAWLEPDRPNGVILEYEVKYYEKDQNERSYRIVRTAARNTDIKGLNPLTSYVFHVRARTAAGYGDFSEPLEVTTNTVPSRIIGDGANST
Procedure: For the pull-down analysis, Bio-Rhy was bound to streptavidin magnetic beads for 1 h, the beads was then incubated with recombinant EphA4-Fc or EphB2-Fc in the presence of 0.5% BSA for 1 h. After incubation, the beads were washed 4 times with DPBS and the presence of Eph in the complex was determined by western blot analysis.

[4] = inhibitor (Cpd1 500 μM, Ros 10 μM) + Aβ, Aβ alone 818.1±28.2 ms
[5] = inhibitor alone (Cpd1 500 μM, Ros 10 μM), control 454.1±12.5 ms

Structure (SMILES)	potency on EphA4 inhibition (EphA4 clusters) compared to Rhy (words) (EphA4; 50 μM)	potency on EphA4 inhibition (EphA4 clusters) compared to Rhy (words) (EphA4; 30 μM)	also measured
Cc1ccc(C)n1-c1ccc(C(=O)O)c(O)c1 [Cpd1, 2-hydroxy-4-(2,5-dimethyl-1-pyrrolyl)benzoic acid, reference compound]	–	–	mEPSC inter-event interval [1, 4]: 542.6 ± 15.4 ms; mEPSC inter-event interval [1, 5]: 559.5 ± 16.6 ms; ephrin-A1-stimulated growth cone collapse [2]: also inhibited ephrin-A1-stimulated growth cone collapse; concentration at which ephrin-A1-stimulated growth cone collapse is inhibited ([2]; data not shown): exceeding 10 μM
CCC1CN2CCC3(C(=O)N(Cc4ccccc4-c4ccccc4)c4ccccc43)C2CC1C(=COC)C(=O)OC (stereo not shown) [RHY-10]	significantly reduced the EphA4 clusters compared to Rhy	–	inhibitory effect on EphA4 cluster formation (EphA4; 50 μM): most significant
CC[C@H]1CN2CC[C@]3(C(=O)N(CCCCCCCCCl)c4ccccc43)[C@@H]2C[C@@H]1/C(=C\OC)C(=O)OC [RHY-26]	–	–	reduction of ephrin-A1-induced EphA4 clustering (EphA4; 30 μM, 20 min pretreatment, then ephrin-A1 40 min, some sentences add 'when compared to Rhy'): ~80%; inhibitory effect on EphA4 clusters (potency) compared to Rhy (EphA4): 5 fold
CCC1CN2CCC3(C(=O)N(CCCCCCOC(=O)c4ccc(OC)c(OC)c4)c4ccccc43)C2CC1C(=COC)C(=O)OC (stereo not shown) [RHY-33]	comparable potency as Rhy	–	–
CCC1CN2CCC3(C(=O)N(CCCCCCCCCCCCl)c4ccccc43)C2CC1C(=COC)C(=O)OC (stereo not shown) [RHY-66]	–	–	potency as EphA4 inhibitor (EphA4): tested and verified
CC[C@H]1CN2CC[C@]3(C(=O)N(CCCCCCCOC(=O)c4cc(OC)ccc4[N+](=O)[O-])c4ccccc43)[C@@H]2C[C@@H]1/C(=C\OC)C(=O)OC [RHY-45]	–	more potent; also recorded: higher potency on EphA4 inhibition than Rhy	–
CCC1CN2CCC3(C(=O)N(CCCCCCNCCN4CCCC4)c4ccccc43)C2CC1C(=COC)C(=O)OC (stereo not shown) [RHY-41]	higher potency on EphA4 inhibition	–	–
CCC1CN2CCC3(C(=O)N(CC(=O)c4ccc(OC)cc4)c4ccccc43)C2CC1C(=COC)C(=O)OC (stereo not shown) [RHY-28]	significantly reduced the EphA4 clusters compared to Rhy	–	inhibitory effect on EphA4 cluster formation (EphA4; 50 μM): most significant
CC[C@H]1CN2CC[C@]3(C(=O)N(CCCCCCCCOC(=O)c4cc(OC)ccc4[N+](=O)[O-])c4ccccc43)[C@@H]2C[C@@H]1/C(=C\OC)C(=O)OC [RHY-50]	–	more potent; also recorded: higher potency on EphA4 inhibition than Rhy	–
CCC1CN2CCC3(C(=O)N(Cc4cccc(Cl)c4)c4ccccc43)C2CC1C(=COC)C(=O)OC (stereo not shown) [RHY-19]	significantly reduced the EphA4 clusters compared to Rhy	–	inhibitory effect on EphA4 cluster formation (EphA4; 50 μM): most significant
CCC1CN2CCC3(C(=O)N(CCCCCCCCCOC(=O)C=Cc4ccc(OC)cc4)c4ccccc43)C2CC1C(=COC)C(=O)OC (stereo not shown) [RHY-59]	–	more potent; also recorded: higher potency on EphA4 inhibition than Rhy	–
CCC1CN2CCC3(C(=O)N(CCCCCCCOC(=O)c4ccc(OC)c(OC)c4)c4ccccc43)C2CC1C(=COC)C(=O)OC (stereo not shown) [RHY-38]	more potent activity than Rhy; also recorded: more potent effect on EphA4 inhibition than Rhy	–	–
CCC1CN2CCC3(C(=O)N(CCCCCCBr)c4ccccc43)C2CC1C(=COC)C(=O)OC (stereo not shown) [RHY-27]	–	higher potency on EphA4 inhibition	–
CC[C@H](CO)Nc1nc(NCc2ccccc2)c2ncn(C(C)C)c2n1 [Ros, roscovitine]	–	–	mEPSC inter-event interval [1, 4]: 494.1 ± 11.7 ms; mEPSC inter-event interval [1, 5]: 451.0 ± 11.2 ms
CCC1CN2CCC3(C(=O)N(CCCCCCCCOC(=O)c4ccc(Br)cc4I)c4ccccc43)C2CC1C(=COC)C(=O)OC (stereo not shown) [RHY-52]	–	More Potent Effect on EphA4 Inhibition than Rhy	–
CC[C@H]1CN2CC[C@]3(C(=O)N(CCCCCCCOc4ccc(O)cc4)c4ccccc43)[C@@H]2C[C@@H]1/C(=C\OC)C(=O)OC [RHY-48]	–	comparable potency to Rhy	–
CCC1CN2CCC3(C(=O)N(CCCCCCCCNCCN4CCCC4)c4ccccc43)C2CC1C(=COC)C(=O)OC (stereo not shown) [RHY-53]	–	–	potency as EphA4 inhibitor (EphA4): tested and verified
CCC1CN2CCC3(C(=O)N(CCCCCCCCCOc4ccc(O)cc4)c4ccccc43)C2CC1C(=COC)C(=O)OC (stereo not shown) [RHY-60]	–	more potent effect on EphA4 inhibition than Rhy	potency on EphA4 inhibition (EphA4 clusters) compared to Rhy (words) (EphA4; 30 μM, listed as RHY60): significantly more potent than Rhy
CC[C@H]1CN2CC[C@]3(C(=O)N(CCCCCCCCOc4ccc(OC)c(OC)c4)c4ccccc43)[C@@H]2C[C@@H]1/C(=C\OC)C(=O)OC [RHY-37]	–	more potent effect on EphA4 inhibition than Rhy	inhibitory effect on EphA4 clusters (potency) compared to Rhy (EphA4): 12 fold
CCC1CN2CCC3(C(=O)N(CCCCCCOC(=O)c4cc(OC)ccc4[N+](=O)[O-])c4ccccc43)C2CC1C(=COC)C(=O)OC (stereo not shown) [RHY-40]	–	more potent; also recorded: higher potency on EphA4 inhibition than Rhy	–
CCC1CN2CCC3(C(=O)N(CCCCCCNC(=O)CCCCC4SCC5NC(=O)NC54)c4ccccc43)C2CC1C(=COC)C(=O)OC (stereo not shown) [Bio-Rhy]	–	–	binding to the extracellular domain of EphA4 (pull-down, words) [3]: bound specifically to the extracellular domain of EphA4
CCC1CN2CCC3(C(=O)N(CCCCCCCCCNCCCCCCN)c4ccccc43)C2CC1C(=COC)C(=O)OC (stereo not shown) [RHY-32]	higher potency on EphA4 inhibition	–	–
CC(C)[C@@H]1[C@H]2OC(=O)[C@@H]1[C@@H]1CC[C@@H]3CN(C)[C@H]2[C@@]31C [Dendrobine, dendrobine]	–	–	ephrin-A1-stimulated growth cone collapse [2]: inhibited ephrin-A1-stimulated growth cone collapse
CCC1CN2CCC3(C(=O)N(CCCCCCCCCOC(=O)c4ccc(OC)c(OC)c4)c4ccccc43)C2CC1C(=COC)C(=O)OC (stereo not shown) [RHY-57]	more potent activity than Rhy; also recorded: more potent effect on EphA4 inhibition than Rhy	–	–
CC[C@H]1CN2CC[C@]3(C(=O)N(CCCCCCCNCCN4CCCC4)c4ccccc43)[C@@H]2C[C@@H]1/C(=C\OC)C(=O)OC [RHY-46]	higher potency on EphA4 inhibition	–	–
CCC1CN2CCC3(C(=O)N(CCCCl)c4ccccc43)C2CC1C(=COC)C(=O)OC (stereo not shown) [RHY-61]	–	–	potency as EphA4 inhibitor (EphA4): tested and verified
CCC1CN2CCC3(C(=O)N(CCCCCCCOc4ccc(OCc5ccccc5)cc4)c4ccccc43)C2CC1C(=COC)C(=O)OC (stereo not shown) [RHY-44]	–	higher potency on EphA4 inhibition	–
